According to US8685974B2 (Bayer CropScience AG, priority 2009, dated 2014):
Where a name gives a salt, the structure may show the parent alone.

Assay: physchem
Conditions: pH 2.7

SMILES	log p	chromatographic logP
O=C(Cc1ccnc(Cl)n1)c1ccc(Cl)s1 [2-(2-Chloropyrimidin-4-yl)-1-(5-chloro-2-thienyl)ethanone]	2.6	
CC(C)Cn1cc(-c2ccncc2)c(-c2ccc(Br)s2)n1 [4-[1-isobutyl-3-(5-bromo-2-thienyl)-1H-pyrazol-4-yl]pyridine]	2.04	
CC(C)n1nc(C2CC2)c(-c2ccncc2)c1-c1ccc(Cl)s1 [4-[3-Cyclopropyl-1-isopropyl-5-(5-chloro-2-thienyl)-1H-pyrazol-4-yl]pyridine]	2.44	
CN(C)C=CC(=O)c1cc(Br)c(Br)s1 [1-(4,5-Dibromo-2-thienyl)-3-(dimethylamino)prop-2-en-1-one]	2.68	
CC(=O)Nc1cc(-c2cn(CC(C)C)nc2-c2ccc(Cl)s2)cc[n+]1[O-] [N-{4-[3-(5-chloro-2-thienyl)-1-isobutyl-1H-pyrazol-4-yl]-1-oxidopyridin-2-yl}acetamide]	2.86	
CCn1cc(I)c(-c2cc(Cl)cs2)n1 [3-(4-Chloro-2-thienyl)-1-ethyl-4-iodo-1H-pyrazole]	4.02	
CCC(C)n1ncc(-c2ccncc2)c1-c1ccc(Cl)s1 (stereo not shown) [4-[1-sec-Butyl-5-(5-chloro-2-thienyl)-1H-pyrazol-4-yl]pyridine]	1.94	
Clc1ccc(-c2n[nH]c(Br)c2-c2ccncc2)s1 [4-[5-Bromo-3-(5-chloro-2-thienyl)-1H-pyrazol-4-yl]pyridine]	1.4	
CCC(C)n1cc(I)c(-c2cccs2)n1 (stereo not shown) [1-sec-Butyl-4-iodo-3-(2-thienyl)-1H-pyrazole]	4.12	
CSc1nccc(C(=CN(C)C)C(=O)c2ccc(Cl)s2)n1 [3-(Dimethylamino)-1-(5-chloro-2-thienyl)-2-[2-(methylsulfanyl)pyrimidin-4-yl]prop-2-en-1-one]	2.27	
CSc1ccc(-c2nn(C(C)C)cc2-c2ccncc2)s1 [4-[1-Isopropyl-3-(5-methylsulfanyl-2-thienyl)-1H-pyrazol-4-yl]pyridine]	1.79	
CCn1ccc(-c2cc(Br)cs2)n1 [3-(4-Bromo-2-thienyl)-1-ethyl-1H-pyrazole]	3.04	
CCCn1nccc1-c1cccs1 [1-Propyl-5-(2-thienyl)-1H-pyrazole]	2.64	
CC(C)n1nccc1-c1cc(Br)c(Br)s1 [5-(4,5-Dibromo-2-thienyl)-1-isopropyl-1H-pyrazole]	4.44	
CCn1cc(-c2ccncc2)c(-c2cccs2)n1 [Example 148, 4-[1-Ethyl-3-(2-thienyl)-1H-pyrazol-4-yl]pyridine]		0.75
CN(C)C=C(C(=O)c1ccc(Cl)s1)c1ccnc(Cl)c1 [1-(5-chloro-2-thienyl)-3-(dimethylamino)-2-(2-chloropyridin-4-yl)prop-2-en-1-one]	2.58	
Cc1csc(-c2ccnn2C(C)C)c1 [1-Isopropyl-5-(4-methyl-2-thienyl)-1H-pyrazole]	3.18	
CC(C)n1cc(-c2ccncc2)c(-c2ccc(Cl)s2)n1 [4-[1-Isopropyl-3-(5-chloro-2-thienyl)-1H-pyrazol-4-yl]pyridine]	1.82	
CC(C)Nc1nccc(-c2cn(C(C)C)nc2-c2ccc(Cl)s2)n1 [N-Isopropyl-4-[3-(5-chloro-2-thienyl)-1-isopropyl-1H-pyrazol-4-yl]pyrimidin-2-amine]	2.82	
CCn1ncc(I)c1-c1cc(Cl)cs1 [5-(4-Chloro-2-thienyl)-1-ethyl-4-iodo-1H-pyrazole]	3.76	
Brc1ccc(-c2n[nH]cc2-c2ccncc2)s1 [4-[3-(5-Bromo-2-thienyl)-1H-pyrazol-4-yl]pyridine]	0.94	
CC(C)n1nccc1-c1cccs1 [1-Isopropyl-5-(2-thienyl)-1H-pyrazole]	2.69	
CC#Cc1[nH]nc(-c2ccc(Cl)s2)c1-c1ccncc1 [4-[3-(5-Chloro-2-thienyl)-5-(prop-1-yn-1-yl)-1H-pyrazol-4-yl]pyridine]	1.44	

SMILES	log p	chromatographic logP
Cc1csc(-c2nn(C(C)C)cc2I)c1 [4-Iodo-1-isopropyl-3-(4-methyl-2-thienyl)-1H-pyrazole]	4.26	
FC(F)(F)c1ccc(-c2n[nH]cc2-c2ccncc2)s1 [4-[3-(5-trifluoromethyl-2-thienyl)-1H-pyrazol-4-yl]pyridine hydrochloride]	1.34	
CCC(=O)Nc1cc(-c2cn(CC)nc2-c2cccs2)ccn1 [N-{4-[1-Ethyl-3-(2-thienyl)-1H-pyrazol-4-yl]pyridin-2-yl}propanamide]	1.65	
CC(C)n1nccc1-c1cc(Br)cs1 [5-(4-Bromo-2-thienyl)-1-isopropyl-1H-pyrazole]	3.44	
CCC(C)n1ccc(-c2cccs2)n1 (stereo not shown) [1-sec-Butyl-3-(2-thienyl)-1H-pyrazole]	3.1	
CCC(C)n1ncc(I)c1-c1cccs1 (stereo not shown) [1-sec-Butyl-4-iodo-5-(2-thienyl)-1H-pyrazole]	4.12	
CCC(C)n1cc(-c2ccncc2)c(-c2cc(Cl)cs2)n1 (stereo not shown) [4-[1-sec-Butyl-3-(4-chloro-2-thienyl)-1H-pyrazol-4-yl]pyridine]	1.83	
CCC(C)n1cc(-c2ccnc(Cl)c2)c(-c2ccc(Cl)s2)n1 (stereo not shown) [2-Chloro-4-[1-sec-butyl-3-(5-chloro-2-thienyl)-1H-pyrazol-4-yl]pyridine]	4.9	
CCn1cc(I)c(-c2cccs2)n1 [1-Ethyl-4-iodo-3-(2-thienyl)-1H-pyrazole]	3.13	
CCC(C)n1nc(-c2ccc(Cl)s2)c(-c2ccncc2)c1Cl (stereo not shown) [4-[5-Chloro-1-secbutyl-3-(5-chloro-2-thienyl)-1H-pyrazol-4-yl]pyridine]	3.44	
Clc1csc(-c2n[nH]cc2I)c1 [3-(4-chloro-2-thienyl)-4-iodo-1H-pyrazole]	2.68	
Ic1c[nH]nc1-c1cccs1 [4-Iodo-3-(2-thienyl)-1H-pyrazole]	2.1	
CCn1nc(-c2ccc(Cl)s2)c(Br)c1C [4-Bromo-3-(5-chloro-2-thienyl)-1-ethyl-5-methyl-1H-pyrazole]	4.54	
CCCn1cc(I)c(-c2cc(C)cs2)n1 [4-Iodo-3-(4-methyl-2-thienyl)-1-propyl-1H-pyrazole]	4.2	
CN(C)C=CC(=O)c1cc(Cl)cs1 [1-(4-Chloro-2-thienyl)-3-(dimethylamino)prop-2-en-1-one]	1.86	
CCn1ccc(-c2cc(C)cs2)n1 [1-Ethyl-3-(4-methyl-2-thienyl)-1H-pyrazole]	2.64	
CCn1nccc1-c1cc(Br)cs1 [5-(4-Bromo-2-thienyl)-1-ethyl-1H-pyrazole]	2.92	
Cc1csc(-c2nn(C)cc2I)c1 [4-Iodo-1-methyl-3-(4-methyl-2-thienyl)-1H-pyrazole]	3.18	
Clc1ccc(-c2n[nH]cc2-c2ccncc2)s1 [4-[3-(5-chloro-2-thienyl)-1H-pyrazol-4-yl]pyridine]	0.9	
CC(=O)N(C(C)=O)c1nccc(-c2cn(C(C)C)nc2-c2ccc(Cl)s2)n1 [N-Acetyl-N-{4-[3-(5-chloro-2-thienyl)-1-isopropyl-1H-pyrazol-4-yl]pyrimidin-2-yl}acetamide]	3.33	
CCCc1c(I)c(-c2sccc2C)nn1C [4-Iodo-1-methyl-3-(3-methyl-2-thienyl)-5-propyl-1H-pyrazole]	4.03	
CSc1ccc(-c2c(-c3ccncc3)cnn2C(C)C)s1 [4-[1-Isopropyl-5-(5-methylsulfanyl-2-thienyl)-1H-pyrazol-4-yl]pyridine]	1.78	

Same assay, conditions: pH 7.8

SMILES	chromatographic logP
CCn1cc(-c2ccncc2)c(-c2cccs2)n1 [Example 148, 4-[1-Ethyl-3-(2-thienyl)-1H-pyrazol-4-yl]pyridine]	2.06
